# From paper PMC8459971, “Evaluation of the hepatotoxicity of the novel GPR40 (FFAR1) agonist CPL207280 in the rat and monkey” (PLoS ONE, 2021)
# Where “and” joins values, the source holds several entries; their conditions need not be identical. Equal entries are not always repeated. Where two headings read alike, the source gives them in different places.
# What was measured:
# [1] = biological target: T1, OAT2v1 (Homo sapiens, UniProt Q9Y694); assay: Uptake transporter inhibition assay, OAT2v1; format: cell-based; conditions: OAT2v1; reference inhibitor 300 µM
# T1 construct: expressed in transfected cells; host or cells: HEK cells
# T1 sequence (Q9Y694 1-546 isoform Q9Y694-2): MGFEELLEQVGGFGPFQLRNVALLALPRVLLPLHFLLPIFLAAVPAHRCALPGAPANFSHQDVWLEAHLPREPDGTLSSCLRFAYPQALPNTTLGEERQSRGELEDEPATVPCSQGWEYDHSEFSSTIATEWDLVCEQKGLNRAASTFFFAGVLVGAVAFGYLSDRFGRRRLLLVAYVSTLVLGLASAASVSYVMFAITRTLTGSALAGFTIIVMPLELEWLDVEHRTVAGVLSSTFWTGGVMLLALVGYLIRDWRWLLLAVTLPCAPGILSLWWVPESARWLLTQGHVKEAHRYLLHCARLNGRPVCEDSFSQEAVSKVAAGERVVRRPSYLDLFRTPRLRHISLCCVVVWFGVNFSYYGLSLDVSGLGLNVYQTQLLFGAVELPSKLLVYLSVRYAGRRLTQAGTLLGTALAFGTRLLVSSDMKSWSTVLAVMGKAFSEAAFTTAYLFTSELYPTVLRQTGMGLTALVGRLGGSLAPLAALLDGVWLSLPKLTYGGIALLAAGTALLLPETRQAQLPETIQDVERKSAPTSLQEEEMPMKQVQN
# Description: (§1) For the uptake transporter inhibition assay, cells were washed twice with 100 μL of the appropriate buffer (HK, pH 7.4) for OATP1B1, followed by HBSS (pH 7.4) for (NTCP, OAT1, OAT2v1, OATP1A2, and OATP1B3). Uptake experiments were carried out at 37 ± 1°C in 50 μL of the respective buffer containing the probe substrate and the compound or solvent.
# [2] = biological target: T2, OAT1 (Homo sapiens, UniProt Q4U2R8); assay: Uptake transporter inhibition assay, OAT1; conditions: OAT1; reference inhibitor 300 µM;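 further: HEK293FT cells expressing OAT1 or mock, uptake of radiolabeled probe substrate at 37 °C in HBSS pH 7.4 with test compound or solvent, cell lysate read by liquid scintillation counting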
# T2 sequence (Q4U2R8 1-563): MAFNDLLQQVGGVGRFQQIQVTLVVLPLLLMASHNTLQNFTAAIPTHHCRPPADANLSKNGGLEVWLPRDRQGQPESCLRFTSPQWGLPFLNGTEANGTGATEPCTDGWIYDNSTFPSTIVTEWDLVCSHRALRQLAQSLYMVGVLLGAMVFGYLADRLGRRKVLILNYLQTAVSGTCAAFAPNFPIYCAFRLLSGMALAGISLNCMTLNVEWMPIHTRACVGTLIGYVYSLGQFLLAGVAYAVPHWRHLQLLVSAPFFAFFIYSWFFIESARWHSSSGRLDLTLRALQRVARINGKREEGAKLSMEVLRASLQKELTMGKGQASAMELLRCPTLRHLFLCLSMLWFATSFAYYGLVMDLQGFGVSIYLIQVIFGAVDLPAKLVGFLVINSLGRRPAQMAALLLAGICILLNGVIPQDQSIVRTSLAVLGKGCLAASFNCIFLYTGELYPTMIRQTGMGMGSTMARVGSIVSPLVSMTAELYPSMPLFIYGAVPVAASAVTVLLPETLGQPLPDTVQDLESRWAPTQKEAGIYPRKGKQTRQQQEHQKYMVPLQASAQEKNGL
# Description: (§2) For the uptake transporter inhibition assay, cells were washed twice with 100 μL of the appropriate buffer (HK, pH 7.4) for OATP1B1, followed by HBSS (pH 7.4) for (NTCP, OAT1, OAT2v1, OATP1A2, and OATP1B3). Uptake experiments were carried out at 37 ± 1°C in 50 μL of the respective buffer containing the probe substrate and the compound or solvent. […] After the experiment, cells were washed twice with 100 μL of cold appropriate buffer and lysed with 50 μL of 0.1 M NaOH. Radiolabeled probe substrate transport was determined by measuring an aliquot (35 μL) from each well for liquid scintillation counting.
# [3] = biological target: MRP2 (Homo sapiens, UniProt Q92887); assay: Vesicular transport inhibition assay, MRP2; conditions: MRP2; reference inhibitor 200 µM;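 further: membrane vesicles with probe substrate plus 2 mM glutathione, incubated with 4 mM ATP or AMP (AMP as background control), vesicle-retained substrate measured by liquid scintillation counting; ATP 4 mM vs AMP background separates transporter uptake from diffusion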
# Chain of MRP2 (Q92887 whole entry, the tested form may be a part): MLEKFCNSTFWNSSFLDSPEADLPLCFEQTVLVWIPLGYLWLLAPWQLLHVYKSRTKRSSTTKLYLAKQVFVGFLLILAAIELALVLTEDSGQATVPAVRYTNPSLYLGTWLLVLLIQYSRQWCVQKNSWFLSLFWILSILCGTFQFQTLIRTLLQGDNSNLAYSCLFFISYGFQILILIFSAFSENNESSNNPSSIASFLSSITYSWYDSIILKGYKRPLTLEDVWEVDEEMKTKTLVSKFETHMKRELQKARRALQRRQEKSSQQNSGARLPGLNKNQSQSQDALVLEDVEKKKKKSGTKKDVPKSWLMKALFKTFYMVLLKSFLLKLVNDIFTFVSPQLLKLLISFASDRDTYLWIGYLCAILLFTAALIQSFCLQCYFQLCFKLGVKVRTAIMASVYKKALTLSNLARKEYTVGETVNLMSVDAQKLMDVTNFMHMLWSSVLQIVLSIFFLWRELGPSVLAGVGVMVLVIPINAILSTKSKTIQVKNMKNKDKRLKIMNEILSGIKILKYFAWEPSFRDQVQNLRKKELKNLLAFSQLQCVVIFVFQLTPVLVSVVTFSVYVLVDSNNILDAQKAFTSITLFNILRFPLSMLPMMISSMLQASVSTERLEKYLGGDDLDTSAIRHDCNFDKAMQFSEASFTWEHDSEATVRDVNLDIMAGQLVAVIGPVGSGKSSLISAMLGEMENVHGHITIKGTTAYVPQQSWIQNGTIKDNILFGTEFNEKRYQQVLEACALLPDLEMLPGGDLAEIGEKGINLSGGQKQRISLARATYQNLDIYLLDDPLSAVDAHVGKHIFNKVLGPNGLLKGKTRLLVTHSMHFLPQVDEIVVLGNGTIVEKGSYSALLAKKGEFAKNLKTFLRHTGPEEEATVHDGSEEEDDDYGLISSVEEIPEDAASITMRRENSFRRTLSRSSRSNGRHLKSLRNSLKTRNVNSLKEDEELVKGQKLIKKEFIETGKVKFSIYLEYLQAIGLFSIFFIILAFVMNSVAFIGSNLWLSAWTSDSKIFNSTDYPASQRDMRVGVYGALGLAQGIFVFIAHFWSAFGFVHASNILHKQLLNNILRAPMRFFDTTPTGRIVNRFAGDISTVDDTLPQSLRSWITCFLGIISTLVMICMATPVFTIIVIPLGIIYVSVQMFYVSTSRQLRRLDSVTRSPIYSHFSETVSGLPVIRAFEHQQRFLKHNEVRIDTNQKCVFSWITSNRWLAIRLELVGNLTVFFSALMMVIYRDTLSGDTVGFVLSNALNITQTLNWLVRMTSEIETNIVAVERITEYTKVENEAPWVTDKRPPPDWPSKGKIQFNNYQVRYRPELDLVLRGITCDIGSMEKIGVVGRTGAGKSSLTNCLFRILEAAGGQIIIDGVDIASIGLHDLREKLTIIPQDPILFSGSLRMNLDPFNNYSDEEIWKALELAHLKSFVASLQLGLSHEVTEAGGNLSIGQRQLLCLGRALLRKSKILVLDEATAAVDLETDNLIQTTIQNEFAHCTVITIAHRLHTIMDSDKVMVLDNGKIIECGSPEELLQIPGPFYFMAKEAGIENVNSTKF
# Description: In the vesicular transport inhibition assay (for BSEP, MRP) compounds were incubated with membrane vesicle preparations and the probe substrate. Incubations were carried out in the presence of 4 mM ATP or AMP to distinguish between transporter-mediated uptake and passive diffusion into the vesicles. For MRP2 and MRP3, reactions were carried out in the presence of 2 mM glutathione. Compounds were added to the reaction mixture in 0.75 μL of solvent (1% of the final incubation volume). […] Reactions were initiated by the addition of 25 μL of 12 mM MgATP (or 12 mM AMP in assay buffer as a background control) and preincubated separately. Reactions were quenched by the addition of 200 μL of ice-cold washing buffer and immediate filtration via glass fiber filters mounted on a 96-well plate (filter plate). The filters were washed (5 × 200 μL of ice-cold washing buffer), dried, and the amount of substrate inside the filtered vesicles was determined by liquid scintillation counting.
# [4] = biological target: OATP1A2 (Homo sapiens, UniProt P46721); assay: Uptake transporter inhibition assay, OATP1A2; conditions: OATP1A2; reference inhibitor 500 µM;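 further: cellular uptake of a radiolabeled probe substrate in HBSS pH 7.4 at 37 °C with test compound or solvent, measured by liquid scintillation counting of cell lysates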
# Chain of OATP1A2 (P46721 whole entry): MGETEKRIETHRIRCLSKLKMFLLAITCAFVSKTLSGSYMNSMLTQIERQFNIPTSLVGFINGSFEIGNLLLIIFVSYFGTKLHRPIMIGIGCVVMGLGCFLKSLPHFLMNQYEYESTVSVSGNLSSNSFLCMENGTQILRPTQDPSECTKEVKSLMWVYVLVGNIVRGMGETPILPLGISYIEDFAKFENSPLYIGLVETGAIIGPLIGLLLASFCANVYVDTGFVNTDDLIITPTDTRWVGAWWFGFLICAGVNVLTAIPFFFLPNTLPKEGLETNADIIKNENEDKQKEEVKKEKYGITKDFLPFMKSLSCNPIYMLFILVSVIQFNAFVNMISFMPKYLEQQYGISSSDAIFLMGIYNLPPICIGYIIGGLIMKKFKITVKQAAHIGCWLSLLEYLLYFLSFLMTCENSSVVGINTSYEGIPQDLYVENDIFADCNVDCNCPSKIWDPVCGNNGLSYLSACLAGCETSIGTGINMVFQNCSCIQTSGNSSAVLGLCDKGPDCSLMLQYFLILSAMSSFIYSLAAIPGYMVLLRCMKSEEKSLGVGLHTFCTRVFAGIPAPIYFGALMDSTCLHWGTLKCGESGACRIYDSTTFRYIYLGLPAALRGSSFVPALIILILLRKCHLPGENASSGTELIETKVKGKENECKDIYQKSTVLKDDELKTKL
# Description: as §2
# [5] = biological target: T3, NTCP (Homo sapiens, UniProt Q14973); assay: Uptake transporter inhibition assay, NTCP; format: cell-based; conditions: NTCP; reference inhibitor 300 µM
# T3 construct: expressed in transfected cells; host or cells: HEK cells
# T3 sequence (Q14973 1-349): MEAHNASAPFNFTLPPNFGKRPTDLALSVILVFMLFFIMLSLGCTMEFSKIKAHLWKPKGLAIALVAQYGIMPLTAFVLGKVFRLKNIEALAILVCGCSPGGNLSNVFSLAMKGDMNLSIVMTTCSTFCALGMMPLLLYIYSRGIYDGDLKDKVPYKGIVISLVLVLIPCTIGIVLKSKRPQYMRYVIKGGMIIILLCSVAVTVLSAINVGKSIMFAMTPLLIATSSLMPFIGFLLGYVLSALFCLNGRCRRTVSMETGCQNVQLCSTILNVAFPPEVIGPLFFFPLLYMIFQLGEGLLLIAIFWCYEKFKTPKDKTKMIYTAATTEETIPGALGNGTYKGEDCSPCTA
# Description: as §1
# [6] = test system: HepaRG spheroids; assay: HepaRG 3D spheroids, cell and mitochondrial health markers, 14 days; conditions: TIMEPOINT 336
# Description: Hepatic spheroids were formed by seeding HepaRG™ cells into round-bottom ultra-low adhesion 96-well spheroid plates (Corning®) in 3D liver media with 0.5% DMSO, 100 U/mL penicillin, and 100 mg/L streptomycin. Cells were incubated at 37°C and 5% CO2 until spheroid formation and then compound-treated. The test compound was diluted in the vehicle, and serial dilutions were made in a 0.5% vehicle in HepaRG™ induction media. […] L-buthionine sulfoximine was used as positive control for GSH content, whereas rotenone was simultaneously used as a positive control for mitochondrial dysfunction and ATP content. At the end of the incubation period, the cells were loaded with the relevant dye for each cell health marker: DNA structure–Hoescht, GSH content–mBCL, ROS formation–DHE, mitochondrial dysfunction–MitoTracker, and cellular ATP content–CellTiter-Glo®, Promega. The plate was then scanned using an automated confocal fluorescent cellular imager, ArrayScan® XTI (Thermo Scientific Cellomics) at 37°C and 5% CO2. Further, the cellular ATP content was measured using CellTiter-Glo® (Promega, USA).
# [7] = HepaRG spheroid, at the concentration (uM) given
# [8] = HepaRG spheroid, plotted value at the concentration given
smiles,measurement,setting,value
COc1ccc2c(c1)c(CC(=O)O)c(C)n2C(=O)c1ccc(Cl)cc1 [Indomethacin],Accumulation (counts per minute; CPM) HEK293FT-OAT2v1,[1],503 CPM and 467 CPM and 353 CPM and 367 CPM
CCc1oc2ccccc2c1C(=O)c1cc(Br)c(O)c(Br)c1 [Benzbromarone],Accumulation (counts per minute; CPM) HEK293FT-MOCK,[2],48 CPM and 31 CPM and 32 CPM and 38 CPM
same,Accumulation (counts per minute; CPM) HEK293FT-OAT1,[2],76 CPM and 82 CPM and 74 CPM and 83 CPM
same,Accumulation (counts per minute; CPM) with AMP,[3],198 CPM and 209 CPM
same,Accumulation (counts per minute; CPM) with ATP,[3],183 CPM and 176 CPM
O=C1OC(c2ccc(O)c(S(=O)(=O)O)c2)(c2ccc(O)c(S(=O)(=O)O)c2)c2c(Br)c(Br)c(Br)c(Br)c21 [Sulfobromophthalein],Accumulation (counts per minute; CPM) HEK293FT-MOCK,[4],79 CPM and 76 CPM and 86 CPM
same,Accumulation (counts per minute; CPM) HEK293FT-OATP1A2,[4],880 CPM and 817 CPM and 881 CPM and 862 CPM
C[C@H](CCC(=O)NCCS(=O)(=O)O)[C@H]1CC[C@H]2[C@@H]3[C@H](O)C[C@@H]4C[C@H](O)CC[C@]4(C)[C@H]3CC[C@]12C [TCDC],Accumulation (counts per minute; CPM) HEK293-NTCP,[5],257 CPM and 289 CPM and 184 CPM and 282 CPM
same,Accumulation (counts per minute; CPM) HEK293FT-MOCK,[5],24 CPM and 25 CPM and 21 CPM and 27 CPM
N#CC(C#N)=NNc1cccc(Cl)c1 [carbonyl cyanide 3-chlorophenylhydrazone],Cellular ATP Mean Plotted Value,[6]; CONC 0.04 uM,1.06
same,DNA structure Mean Plotted Value,[6]; CONC 0.04 uM,0.942
same,Glutathione content Mean Plotted Value,[6]; CONC 0.04 uM,0.925
same,Mitochondrial mass Mean Plotted Value,[6]; CONC 0.04 uM,1.13
same,Mitochondrial membrane potential Mean Plotted Value,[6]; CONC 0.04 uM,1.05
same,Oxidative stress Mean Plotted Value,[6]; CONC 0.04 uM,1.02
same,Spheroid count Mean Plotted Value,[6]; CONC 0.04 uM,1
same,Spheroid size Mean Plotted Value,[6]; CONC 0.04 uM,1.01
same,Cellular ATP Mean Plotted Value,[6]; CONC 0.1 uM,1.01
same,DNA structure Mean Plotted Value,[6]; CONC 0.1 uM,1.05
same,Glutathione content Mean Plotted Value,[6]; CONC 0.1 uM,0.914
same,Mitochondrial mass Mean Plotted Value,[6]; CONC 0.1 uM,1.06
same,Mitochondrial membrane potential Mean Plotted Value,[6]; CONC 0.1 uM,1.15
same,Oxidative stress Mean Plotted Value,[6]; CONC 0.1 uM,1
same,Spheroid count Mean Plotted Value,[6]; CONC 0.1 uM,1
same,Spheroid size Mean Plotted Value,[6]; CONC 0.1 uM,1.04
same,Cellular ATP Mean Plotted Value,[6]; CONC 0.4 uM,0.966
same,DNA structure Mean Plotted Value,[6]; CONC 0.4 uM,1.07
same,Glutathione content Mean Plotted Value,[6]; CONC 0.4 uM,0.993
same,Mitochondrial mass Mean Plotted Value,[6]; CONC 0.4 uM,0.994
same,Mitochondrial membrane potential Mean Plotted Value,[6]; CONC 0.4 uM,1.07
same,Oxidative stress Mean Plotted Value,[6]; CONC 0.4 uM,0.993
same,Spheroid count Mean Plotted Value,[6]; CONC 0.4 uM,1
same,Spheroid size Mean Plotted Value,[6]; CONC 0.4 uM,0.969
same,Cellular ATP Mean Plotted Value,[6]; CONC 1 uM,0.843
same,DNA structure Mean Plotted Value,[6]; CONC 1 uM,0.905
same,Glutathione content Mean Plotted Value,[6]; CONC 1 uM,0.819
same,Mitochondrial mass Mean Plotted Value,[6]; CONC 1 uM,1.11
same,Mitochondrial membrane potential Mean Plotted Value,[6]; CONC 1 uM,0.995
same,Oxidative stress Mean Plotted Value,[6]; CONC 1 uM,1.12
same,Spheroid count Mean Plotted Value,[6]; CONC 1 uM,1
same,Spheroid size Mean Plotted Value,[6]; CONC 1 uM,0.994
same,Cellular ATP Mean Plotted Value,[6]; CONC 4 uM,0.0197
same,DNA structure Mean Plotted Value,[6]; CONC 4 uM,0.726
same,Glutathione content Mean Plotted Value,[6]; CONC 4 uM,0.176
same,Mitochondrial mass Mean Plotted Value,[6]; CONC 4 uM,0.851
same,Mitochondrial membrane potential Mean Plotted Value,[6]; CONC 4 uM,0.876
same,Oxidative stress Mean Plotted Value,[6]; CONC 4 uM,1.36
same,Spheroid count Mean Plotted Value,[6]; CONC 4 uM,1
same,Spheroid size Mean Plotted Value,[6]; CONC 4 uM,0.828
same,Cellular ATP Mean Plotted Value,[6]; CONC 10 uM,-0.000228
same,DNA structure Mean Plotted Value,[6]; CONC 10 uM,0.0956
same,Glutathione content Mean Plotted Value,[6]; CONC 10 uM,0.111
same,Mitochondrial mass Mean Plotted Value,[6]; CONC 10 uM,0.763
same,Mitochondrial membrane potential Mean Plotted Value,[6]; CONC 10 uM,0.627
same,Oxidative stress Mean Plotted Value,[6]; CONC 10 uM,1.36
same,Spheroid count Mean Plotted Value,[6]; CONC 10 uM,1
same,Spheroid size Mean Plotted Value,[6]; CONC 10 uM,0.751
same,Cellular ATP Mean Plotted Value,[6]; CONC 40 uM,-0.000179
same,DNA structure Mean Plotted Value,[6]; CONC 40 uM,0.0736
same,Glutathione content Mean Plotted Value,[6]; CONC 40 uM,0.0824
same,Mitochondrial mass Mean Plotted Value,[6]; CONC 40 uM,0.515
same,Mitochondrial membrane potential Mean Plotted Value,[6]; CONC 40 uM,0.236
same,Oxidative stress Mean Plotted Value,[6]; CONC 40 uM,0.339
same,Spheroid count Mean Plotted Value,[6]; CONC 40 uM,1
same,Spheroid size Mean Plotted Value,[6]; CONC 40 uM,0.674
same,Cellular ATP Mean Plotted Value,[6]; CONC 100 uM,8.57e-5
same,DNA structure Mean Plotted Value,[6]; CONC 100 uM,0.0501
same,Glutathione content Mean Plotted Value,[6]; CONC 100 uM,0.0467
same,Mitochondrial mass Mean Plotted Value,[6]; CONC 100 uM,0.488
same,Mitochondrial membrane potential Mean Plotted Value,[6]; CONC 100 uM,0.132
same,Oxidative stress Mean Plotted Value,[6]; CONC 100 uM,0.234
same,Spheroid count Mean Plotted Value,[6]; CONC 100 uM,1
same,Spheroid size Mean Plotted Value,[6]; CONC 100 uM,0.58
same,Cellular ATP MEC,[6]; HepaRG spheroid,0.829 µM
same,DNA structure MEC,[6]; HepaRG spheroid,3.51 µM
same,Glutathione content MEC,[6]; HepaRG spheroid,0.876 µM
same,Mitochondrial mass MEC,[6]; HepaRG spheroid,6.35 µM
same,Mitochondrial membrane potential MEC,[6]; HepaRG spheroid,5.82 µM
same,Oxidative stress MEC,[6]; HepaRG spheroid,1.46 µM
same,Spheroid size MEC,[6]; HepaRG spheroid,2.63 µM
same,Cellular ATP MR (% @ concentration),[6]; [7],100%
same,DNA structure MR (% @ concentration),[6]; [7],95%
same,Glutathione content MR (% @ concentration),[6]; [7],91%
same,Mitochondrial mass MR (% @ concentration),[6]; [7],52%
same,Mitochondrial membrane potential MR (% @ concentration),[6]; [7],88%
same,Oxidative stress MR (% @ concentration),[6]; [7],37%
same,Spheroid size MR (% @ concentration),[6]; [7],35%
same,Cellular ATP MR,[6]; [8],-0.000228
same,DNA structure MR,[6]; [8],0.0501
same,Glutathione content MR,[6]; [8],0.0824
same,Mitochondrial mass MR,[6]; [8],0.515
same,Mitochondrial membrane potential MR,[6]; [8],0.132
same,Oxidative stress MR,[6]; [8],1.36
same,Spheroid size MR,[6]; [8],0.674
same,AC50,"[6]; read-out: Cellular ATP AC50, HepaRG spheroid",1.63 µM
same,AC50,"[6]; read-out: DNA structure AC50, HepaRG spheroid",5.13 µM
same,AC50,"[6]; read-out: Glutathione content AC50, HepaRG spheroid",2.19 µM
same,AC50,"[6]; read-out: Mitochondrial mass AC50, HepaRG spheroid",35.7 µM
same,AC50,"[6]; read-out: Mitochondrial membrane potential AC50, HepaRG spheroid",12.4 µM
same,AC50,"[6]; read-out: Oxidative stress AC50, HepaRG spheroid",15.4 µM
same,AC50,"[6]; read-out: Spheroid count AC50, HepaRG spheroid",> 100 µM
same,AC50,"[6]; read-out: Spheroid size AC50, HepaRG spheroid",> 40 µM
